# Earlier results in patent US12697312B2, “Methods and devices for treatment of eyelid ptosis” (priority 2022, dated 2026).
# How the values were obtained:
# Müllers muscle = conditions: by activating post synaptic neuromuscular junction and muscle contraction
# dry eye = conditions: eye drops containing retinyl palmitate 0.05 percent; Kim et al. (2009)
SMILES,effect on the eyelid (ptosis) (Müllers muscle),treatment of dry eye (keratoconjunctivitis sicca) (dry eye)
CNC[C@H](O)c1cccc(O)c1 [Phenylephrine],shown to lift the eyelid,–
CCCCCCCCCCCCCCCC(=O)OC/C=C(C)/C=C/C=C(C)/C=C/C1=C(C)CCCC1(C)C [retinyl palmitate],–,effective treatment for dry eye
